Results reported in the NIST ThermoML archive (doi:10.1021/je100362p).
Numbers after ± are expanded uncertainties.

Experiment: xn = mol fraction of the nth substance listed
Conditions: 101 kPa, Liquid; for speed of sound: Sing-around technique in a fixed-path interferometer

## COc1ccccc1 [anisole] + CCCCCCCCCCO
298.15 K, x1 = 0.0817
  speed of sound: 1377.1 ± 1.1 m/s
  mass density: 833.984 ± 0.54 kg/m3
298.15 K, x1 = 0.144
  speed of sound: 1375.3 ± 1.1 m/s
  mass density: 840.044 ± 0.53 kg/m3
298.15 K, x1 = 0.2047
  speed of sound: 1373.6 ± 1.1 m/s
  mass density: 846.31 ± 0.52 kg/m3
298.15 K, x1 = 0.273
  speed of sound: 1371.9 ± 1.1 m/s
  mass density: 853.826 ± 0.5 kg/m3
298.15 K, x1 = 0.3484
  speed of sound: 1370.2 ± 1.1 m/s
  mass density: 862.774 ± 0.49 kg/m3
298.15 K, x1 = 0.4099
  speed of sound: 1369.4 ± 1.1 m/s
  mass density: 870.64 ± 0.47 kg/m3
298.15 K, x1 = 0.4874
  speed of sound: 1368.8 ± 1.1 m/s
  mass density: 881.37 ± 0.45 kg/m3
298.15 K, x1 = 0.544
  speed of sound: 1369.2 ± 1.1 m/s
  mass density: 889.862 ± 0.43 kg/m3
298.15 K, x1 = 0.6071
  speed of sound: 1370.4 ± 1.1 m/s
  mass density: 900.075 ± 0.42 kg/m3
298.15 K, x1 = 0.6699
  speed of sound: 1372.3 ± 1.1 m/s
  mass density: 911.097 ± 0.4 kg/m3
298.15 K, x1 = 0.7359
  speed of sound: 1375.5 ± 1.1 m/s
  mass density: 923.763 ± 0.37 kg/m3
298.15 K, x1 = 0.8171
  speed of sound: 1381.6 ± 1.1 m/s
  mass density: 941.067 ± 0.34 kg/m3
298.15 K, x1 = 0.91
  speed of sound: 1392.6 ± 1.1 m/s
  mass density: 963.68 ± 0.3 kg/m3
298.15 K, x1 = 0.9464
  speed of sound: 1398 ± 1.1 m/s
  mass density: 973.453 ± 0.28 kg/m3
298.15 K, x1 = 1
  speed of sound: 1406.9 ± 1.1 m/s
  mass density: 989.145 ± 0.25 kg/m3
303.15 K, x1 = 0.0817
  speed of sound: 1359.8 ± 1.1 m/s
  mass density: 830.48 ± 0.55 kg/m3
303.15 K, x1 = 0.144
  speed of sound: 1357.9 ± 1.1 m/s
  mass density: 836.478 ± 0.54 kg/m3
303.15 K, x1 = 0.2047
  speed of sound: 1356.1 ± 1.1 m/s
  mass density: 842.682 ± 0.52 kg/m3
303.15 K, x1 = 0.273
  speed of sound: 1354.2 ± 1.1 m/s
  mass density: 850.126 ± 0.51 kg/m3
303.15 K, x1 = 0.3484
  speed of sound: 1352.4 ± 1.1 m/s
  mass density: 858.992 ± 0.49 kg/m3
303.15 K, x1 = 0.4099
  speed of sound: 1351.4 ± 1.1 m/s
  mass density: 866.789 ± 0.48 kg/m3
303.15 K, x1 = 0.4874
  speed of sound: 1350.8 ± 1.1 m/s
  mass density: 877.429 ± 0.46 kg/m3
303.15 K, x1 = 0.544
  speed of sound: 1350.9 ± 1.1 m/s
  mass density: 885.853 ± 0.44 kg/m3
303.15 K, x1 = 0.6071
  speed of sound: 1351.9 ± 1.1 m/s
  mass density: 895.987 ± 0.42 kg/m3
303.15 K, x1 = 0.6699
  speed of sound: 1353.6 ± 1.1 m/s
  mass density: 906.926 ± 0.4 kg/m3
303.15 K, x1 = 0.7359
  speed of sound: 1356.5 ± 1.1 m/s
  mass density: 919.5 ± 0.38 kg/m3
303.15 K, x1 = 0.8171
  speed of sound: 1362.2 ± 1.1 m/s
  mass density: 936.682 ± 0.35 kg/m3
303.15 K, x1 = 0.91
  speed of sound: 1372.8 ± 1.1 m/s
  mass density: 959.139 ± 0.31 kg/m3
303.15 K, x1 = 0.9464
  speed of sound: 1377.9 ± 1.1 m/s
  mass density: 968.846 ± 0.29 kg/m3
303.15 K, x1 = 1
  speed of sound: 1386.8 ± 1.1 m/s
  mass density: 984.433 ± 0.26 kg/m3
308.15 K, x1 = 0.0817
  speed of sound: 1342.7 ± 1.1 m/s
308.15 K, x1 = 0.144
  speed of sound: 1340.7 ± 1.1 m/s
308.15 K, x1 = 0.2047
  speed of sound: 1338.8 ± 1.1 m/s
308.15 K, x1 = 0.273
  speed of sound: 1336.8 ± 1.1 m/s
308.15 K, x1 = 0.3484
  speed of sound: 1334.8 ± 1.1 m/s
308.15 K, x1 = 0.4099
  speed of sound: 1333.6 ± 1.1 m/s
308.15 K, x1 = 0.4874
  speed of sound: 1332.8 ± 1.1 m/s
